Results taken from patent publication US11873313B1, “Development of novel tetra nuclear distorted square anti-prism Dy (III) imine complex for pharmaceutical and industrial applications” (KING FAISAL UNIVERSITY, priority 2023, dated 2024).
In brackets after ≈: the same amount, converted by molar mass.

Experiments:
[1] = test system: E-coli bacteria; experiment: Anti-microbial activity (antibacterial, inhibition zone and MIC); assay type: cell-based
[2] = test system: colon cancer cell line; experiment: Anti-cancer activity against colon cancer cell line; assay type: cell-based; settings: read-out: IC50 (anticancer activity)
[3] = test system: breast cancer cell line; experiment: Anti-oxidant activity; settings: against the breast cancer cell line (so in the source)

Q: How did the inhibition zone [1] turn out when `CC1COc2c(N3CCN(C)CC3)c(F)cc3c(=O)c(C(=O)O)cn1c23` (stereo not shown) [Ofloxacin, reference compound] was run?
A: 30 mm

Q: What about the MIC ([1]; Escherichia coli) of the same molecule?
A: 2.25 µg/mL (≈ 6.23 µM)

Q: With `CC[C@]1(O)C[C@@H]2CN(CCc3c([nH]c4ccccc34)[C@@](C(=O)OC)(c3cc4c(cc3OC)N(C)[C@H]3[C@@](O)(C(=O)OC)[C@H](OC(C)=O)[C@]5(CC)C=CCN6CC[C@]43[C@@H]65)C2)C1` [vinblastine, reference compound] as the molecule, how does the IC50 [2] read?
A: 4.7 µg/mL (≈ 5.8 µM)

Q: For `O=C1O[C@H]([C@@H](O)CO)C(O)=C1O` [1-ascorbic acid, reference compound], which “IC50 (Antioxidant activity)” value [3] is on record?
A: 55.2 µg/mL (≈ 313 µM)
